Laboratory results taken from ChEMBL document CHEMBL1135173, “Discovery of substituted 3,4-diphenyl-thiazoles as a novel class of monoamine transporter inhibitors through 3-D pharmacophore search using a new pharmacophore model derived from mazindol” (Bioorg Med Chem Lett, 2002).

Assays:
[1] = target: Norepinephrine transporter (Rattus norvegicus) (UniProt Q9WTR4); test: Selectivity ratio towards Norepinephrine and to that of dopamine transporter
[2] = target: Norepinephrine transporter (Rattus norvegicus) (UniProt Q9WTR4); test: Selectivity ratio towards Norepinephrine and to that of serotonin transporter
[3] = target: Norepinephrine transporter (Rattus norvegicus, UniProt Q9WTR4); test: Compound was tested for the inhibition of norepinephrine [3H]NE reuptake into rat cortical membranes; type: cell membranes, Membrane
Norepinephrine transporter, sequence (Q9WTR4 whole entry): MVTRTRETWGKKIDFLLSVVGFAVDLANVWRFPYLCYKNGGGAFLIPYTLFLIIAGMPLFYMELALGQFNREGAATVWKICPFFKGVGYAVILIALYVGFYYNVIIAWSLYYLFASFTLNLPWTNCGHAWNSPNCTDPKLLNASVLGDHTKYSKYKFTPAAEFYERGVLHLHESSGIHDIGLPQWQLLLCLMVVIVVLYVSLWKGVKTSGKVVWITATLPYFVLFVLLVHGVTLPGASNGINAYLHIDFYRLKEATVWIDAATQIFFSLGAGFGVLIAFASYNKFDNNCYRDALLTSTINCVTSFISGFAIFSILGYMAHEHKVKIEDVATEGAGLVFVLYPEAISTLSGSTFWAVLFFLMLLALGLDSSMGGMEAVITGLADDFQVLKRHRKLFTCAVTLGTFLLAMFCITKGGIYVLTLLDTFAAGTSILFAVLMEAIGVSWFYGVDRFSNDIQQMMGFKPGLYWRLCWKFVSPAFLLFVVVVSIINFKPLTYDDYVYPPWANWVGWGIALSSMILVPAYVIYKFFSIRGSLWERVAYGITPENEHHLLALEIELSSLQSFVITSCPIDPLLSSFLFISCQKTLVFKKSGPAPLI

[4] = target: Monoamine transporters; serotonin & dopamine (Rattus norvegicus) (UniProt P31652+P23977); test: Selectivity ratio towards Serotonin and to that of dopamine transporter; type: protein assay
Monoamine transporters; serotonin & dopamine (Rattus norvegicus), sequence (P23977 whole entry, looked up): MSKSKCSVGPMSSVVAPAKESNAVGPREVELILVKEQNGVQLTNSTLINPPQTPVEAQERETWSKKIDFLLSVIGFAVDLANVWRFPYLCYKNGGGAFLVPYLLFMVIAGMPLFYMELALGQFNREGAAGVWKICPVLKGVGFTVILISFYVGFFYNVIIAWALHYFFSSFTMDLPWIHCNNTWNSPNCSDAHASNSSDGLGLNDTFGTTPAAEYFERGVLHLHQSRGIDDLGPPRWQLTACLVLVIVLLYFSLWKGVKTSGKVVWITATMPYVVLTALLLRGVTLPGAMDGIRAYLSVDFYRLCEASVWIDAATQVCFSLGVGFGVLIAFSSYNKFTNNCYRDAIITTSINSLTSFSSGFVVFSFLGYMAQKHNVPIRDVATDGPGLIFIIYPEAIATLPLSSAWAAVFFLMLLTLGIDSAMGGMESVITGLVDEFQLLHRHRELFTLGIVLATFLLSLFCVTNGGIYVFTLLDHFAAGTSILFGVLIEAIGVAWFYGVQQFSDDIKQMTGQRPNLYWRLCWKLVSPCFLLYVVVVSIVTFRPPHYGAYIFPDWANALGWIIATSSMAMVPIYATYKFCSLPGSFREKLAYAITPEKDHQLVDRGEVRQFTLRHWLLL
Monoamine transporters; serotonin & dopamine (Rattus norvegicus), sequence (P31652 whole entry, looked up): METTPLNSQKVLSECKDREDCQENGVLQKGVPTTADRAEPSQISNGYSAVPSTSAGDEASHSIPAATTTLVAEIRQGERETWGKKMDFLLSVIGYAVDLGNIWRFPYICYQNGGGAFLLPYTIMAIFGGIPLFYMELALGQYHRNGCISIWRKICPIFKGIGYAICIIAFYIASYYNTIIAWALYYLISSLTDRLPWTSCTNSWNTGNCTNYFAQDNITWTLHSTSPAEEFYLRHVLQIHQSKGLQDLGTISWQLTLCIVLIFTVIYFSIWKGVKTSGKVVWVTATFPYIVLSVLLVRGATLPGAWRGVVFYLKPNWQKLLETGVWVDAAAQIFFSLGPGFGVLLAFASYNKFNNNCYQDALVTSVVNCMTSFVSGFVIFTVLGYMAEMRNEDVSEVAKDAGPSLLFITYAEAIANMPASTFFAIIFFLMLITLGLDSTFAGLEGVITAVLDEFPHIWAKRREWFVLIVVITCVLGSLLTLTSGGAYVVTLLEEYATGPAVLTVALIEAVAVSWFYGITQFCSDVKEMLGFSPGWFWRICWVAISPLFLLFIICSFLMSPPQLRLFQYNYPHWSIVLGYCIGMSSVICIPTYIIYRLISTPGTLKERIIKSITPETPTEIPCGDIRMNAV

[5] = target: Sodium-dependent serotonin transporter (Rattus norvegicus, UniProt P31652); test: Compound was tested for the inhibition of serotonin [3H]SER reuptake into rat forebrain membranes; type: cell membranes, Membrane
Sodium-dependent serotonin transporter, sequence (P31652 whole entry): as the sequence (P31652 whole entry, looked up) above

[6] = target: Sodium-dependent dopamine transporter (Rattus norvegicus, UniProt P23977); test: Tested for the ability to displace [3H]WIN-35 428 binding to dopamine transporter (DAT) in rat striatal tissue; type: tissue-based, Striatum
Sodium-dependent dopamine transporter, sequence (P23977 whole entry): as the sequence (P23977 whole entry, looked up) above

[7] = species: Rattus norvegicus; test: Compound was tested for the inhibition of [3H]-DA reuptake into rat striatal tissue; type: functional, Striatum
[8] = species: Rattus norvegicus; test: Compound was tested for the inhibition of [3H]DA reuptake into dopamine transporter in rat striatal tissue; type: functional, Striatum

Norepinephrine transporter (Rattus norvegicus), sequence (Q9WTR4 as listed by the source): as the sequence (Q9WTR4 whole entry) above

SMILES | Selectivity ratio [1] | Selectivity ratio [2] | Ki [3] [nM] | Selectivity ratio [4] | Ki [5] [nM] | Ki [6] [nM] | Ki [7] [nM] | Ki [8] [nM]
N=c1scc(-c2ccc(Cl)cc2)n1-c1ccccc1F | 0.17 | 0.026 | 36 | 6.69 | 1410 | 189 | 210 | 
N=c1scc(-c2ccc(Cl)cc2)n1-c1ccc(Cl)cc1Cl | 0.55 | 0.17 | 141 | 3.32 | 843 | 533 | 254 | 
Cc1ccc(-c2csc(=N)n2-c2ccc(Cl)cc2)cc1 | 4.68 | 0.31 | 801 | 15.3 | 2620 | 124 | 171 | 
c1ccc(-c2nccnc2-c2ccccc2)cc1 |  |  |  |  |  | > 1000 |  | 
CC1C(=O)N=CC(c2ccccc2)=C1c1ccccc1 (stereo not drawn) |  |  |  |  |  | > 1000 |  | 
N=c1scc(-c2ccc(Cl)cc2)n1-c1ccccc1N1CCOCC1 | 0.29 | 52.1 | 22100 | 0.006 | 424 | 42000 |  | 76400

Now those with a lower Ki [6], led by results:

Selectivity ratio [1] | Selectivity ratio [2] | Ki [3] [nM] | Selectivity ratio [4] | Ki [5] [nM] | Ki [6] [nM] | Ki [7] [nM] | Ki [8] [nM] | SMILES
4.1 | 0.44 | 99 | 9.4 | 225 | 24 | 23 |  | Cc1cc(-c2csc(=N)n2-c2ccc(Cl)cc2)ccc1Cl
1.17 | 2.09 | 140 | 0.56 | 67 | 71 | 120 |  | N=c1scc(-c2ccc(Br)cc2)n1-c1cccc(C(F)(F)F)c1
0.26 | 0.065 | 26 | 3.94 | 398 | 86 | 101 |  | N=c1scc(-c2ccc(Cl)cc2)n1-c1cccc(C(F)(F)F)c1
0.84 | 0.2 | 86 | 4.25 | 433 | 48 | 102 |  | Cc1cc(-n2c(-c3c(F)cccc3F)csc2=N)ccc1Cl
